Reference: patent publication US20120029187A1, “HALOALKYLSULFONANILIDE DERIVATIVE” (Nissan Chemical Industries, Ltd., priority 2009, published 2012)

Key:
Type in all cases: in vivo
large crabgrass [1] = assay: Test Example 4: herbicidal effect in foliage treatment; details: three weeks after application
Method in brief: (§1)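 14-day greenhouse-grown plants (25–30° C) sprayed on foliage with diluted EC; dose as g/a; effect graded after 3 weeks.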

velvetleaf [2] = assay: as above; details: three weeks after application
Method in brief: as §1

giant foxtail [3] = assay: as above; details: three weeks after application
Method in brief: as §1

common chickweed [4] = assay: as above; details: three weeks after application
Method in brief: as §1

common lambsquater [5] = assay: as above; details: three weeks after application
Method in brief: as §1

posumbu knotweed [6] = assay: as above; details: three weeks after application
Method in brief: as §1

redroot pigweed [7] = assay: as above; details: three weeks after application
Method in brief: as §1

common ragweed [8] = assay: as above; details: three weeks after application
Method in brief: as §1

Italian ryegrass [9] = assay: as above; details: three weeks after application
Method in brief: as §1

barnyardgrass [10] = assay: as above; details: three weeks after application
Method in brief: as §1

beadstraw = assay: as above; details: three weeks after application
Method in brief: as §1

water foxtail [11] = assay: as above; details: three weeks after application
Method in brief: as §1

ducksalad [12] = assay: Test Example 2: herbicidal effects during the vegetation period under submerged conditions; details: treatment during the vegetation period under submerged conditions; dose 2.52 g/a
Method in brief: (§2)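 Barnyardgrass, bulrush and ducksalad were co-sown in alluvial soil flooded to 4 cm and grown in a greenhouse at 25 to 30° C. At the 1- or 2-leaf stage, water-diluted emulsifiable concentrates went onto the water surface at set doses (g/a). Herbicidal effect was scored three weeks later on a graded scale.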

barnyardgrass [13] = assay: as above; details: treatment during the vegetation period under submerged conditions; dose 2.52 g/a
Method in brief: as §2

bulrush [14] = assay: as above; details: treatment during the vegetation period under submerged conditions; dose 2.52 g/a
Method in brief: as §2

large crabgrass [15] = assay: Test Example 3: herbicidal effects in soil treatment; details: dose 3.2 g/a
Method in brief: (§3)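 Seeds were sown in sterilized diluvial soil and covered with about 1.5 cm of soil. Compounds, formulated as emulsifiable concentrates and diluted with water, were sprayed evenly over the soil surface at set doses in g/a. Herbicidal effect was scored on a rating scale three weeks later.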

velvetleaf [16] = assay: as above; details: dose 3.2 g/a
Method in brief: as §3

giant foxtail [17] = assay: as above; details: dose 3.2 g/a
Method in brief: as §3

common chickweed [18] = assay: as above; details: dose 3.2 g/a
Method in brief: as §3

common lambsquater [19] = assay: as above; details: dose 3.2 g/a
Method in brief: as §3

posumbu knotweed [20] = assay: as above; details: dose 3.2 g/a
Method in brief: as §3

redroot pigweed [21] = assay: as above; details: dose 3.2 g/a
Method in brief: as §3

common ragweed [22] = assay: as above; details: dose 3.2 g/a
Method in brief: as §3

Italian ryegrass [23] = assay: as above; details: dose 3.2 g/a
Method in brief: as §3

barnyardgrass [24] = assay: as above; details: dose 3.2 g/a
Method in brief: as §3

water foxtail [25] = assay: as above; details: dose 3.2 g/a
Method in brief: as §3

ducksalad [26] = assay: Test Example 1: herbicidal effects in preemergence treatment under submerged conditions; details: dose 2.52 g/a
Method in brief: (§4)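 Alluvial soil was flooded to 4 cm, sown with barnyardgrass, bulrush and ducksalad, and planted with 2.5-leaf rice seedlings. On the seeding day, water-diluted emulsifiable concentrates were applied to the water surface at set doses (g/a). After three weeks in a 25 to 30° C. greenhouse, mortality was scored 0–5.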

barnyardgrass [27] = assay: as above; details: dose 2.52 g/a
Method in brief: as §4

bulrush [28] = assay: as above; details: dose 2.52 g/a
Method in brief: as §4

transplanted rice = assay: Test Example 1: preemergence treatment under submerged conditions, effect on crop; details: dose 2.52 g/a
Method in brief: as §4

Compound: CCOC(=O)N(c1ccccc1CN1CC(C)OCC1=O)S(=O)(=O)C(F)(F)F (stereo not shown) [Compound I-7]
- D: large crabgrass, herbicidal effect (large crabgrass [1]; dose 6.3 g/a): 5 (mortality of 90% or above (nearly complete death))
- I: velvetleaf, herbicidal effect (velvetleaf [2]; dose 6.3 g/a): 5 (mortality of 90% or above (nearly complete death))
- E: giant foxtail, herbicidal effect (giant foxtail [3]; dose 6.3 g/a): 5 (mortality of 90% or above (nearly complete death))
- N: common chickweed, herbicidal effect (common chickweed [4]; dose 6.3 g/a): 5 (mortality of 90% or above (nearly complete death))
- L: common lambsquater, herbicidal effect (common lambsquater [5]; dose 6.3 g/a): 4 (mortality of at least 70% and less than 90%)
- M: posumbu knotweed, herbicidal effect (posumbu knotweed [6]; dose 6.3 g/a): 4 (mortality of at least 70% and less than 90%)
- K: redroot pigweed, herbicidal effect (redroot pigweed [7]; dose 6.3 g/a): 1 (mortality of at least 5% and less than 20%)
- J: common ragweed, herbicidal effect (common ragweed [8]; dose 6.3 g/a): 4 (mortality of at least 70% and less than 90%)
- H: Italian ryegrass, herbicidal effect (Italian ryegrass [9]; dose 6.3 g/a): 5 (mortality of 90% or above (nearly complete death))
- A: barnyardgrass, herbicidal effect (barnyardgrass [10]; dose 6.3 g/a): 5 (mortality of 90% or above (nearly complete death))
- O: beadstraw, herbicidal effect (beadstraw; dose 6.3 g/a): 5 (mortality of 90% or above (nearly complete death))
- G: water foxtail, herbicidal effect (water foxtail [11]; dose 6.3 g/a): 5 (mortality of 90% or above (nearly complete death))
- C: ducksalad, herbicidal effect (evaluation scale 0-5) (ducksalad [12]): 5 (mortality of 90% or above (nearly complete death))
- A: barnyardgrass, herbicidal effect (evaluation scale 0-5) (barnyardgrass [13]): 5 (mortality of 90% or above (nearly complete death))
- B: bulrush, herbicidal effect (evaluation scale 0-5) (bulrush [14]): 5 (mortality of 90% or above (nearly complete death))
- D: large crabgrass, herbicidal effect (evaluation scale 0-5) (large crabgrass [15]): 5 (mortality of 90% or above (nearly complete death))
- I: velvetleaf, herbicidal effect (evaluation scale 0-5) (velvetleaf [16]): 5 (mortality of 90% or above (nearly complete death))
- E: giant foxtail, herbicidal effect (evaluation scale 0-5) (giant foxtail [17]): 5 (mortality of 90% or above (nearly complete death))
- N: common chickweed, herbicidal effect (evaluation scale 0-5) (common chickweed [18]): 5 (mortality of 90% or above (nearly complete death))
- L: common lambsquater, herbicidal effect (evaluation scale 0-5) (common lambsquater [19]): 5 (mortality of 90% or above (nearly complete death))
- M: posumbu knotweed, herbicidal effect (evaluation scale 0-5) (posumbu knotweed [20]): 5 (mortality of 90% or above (nearly complete death))
- K: redroot pigweed, herbicidal effect (evaluation scale 0-5) (redroot pigweed [21]): 5 (mortality of 90% or above (nearly complete death))
- J: common ragweed, herbicidal effect (evaluation scale 0-5) (common ragweed [22]): 5 (mortality of 90% or above (nearly complete death))
- H: Italian ryegrass, herbicidal effect (evaluation scale 0-5) (Italian ryegrass [23]): 5 (mortality of 90% or above (nearly complete death))
- A: barnyardgrass, herbicidal effect (evaluation scale 0-5) (barnyardgrass [24]): 5 (mortality of 90% or above (nearly complete death))
- G: water foxtail, herbicidal effect (evaluation scale 0-5) (water foxtail [25]): 5 (mortality of 90% or above (nearly complete death))
- C: ducksalad, herbicidal effect (evaluation scale 0-5) (ducksalad [26]): 5 (mortality of 90% or above (nearly complete death))
- A: barnyardgrass, herbicidal effect (evaluation scale 0-5) (barnyardgrass [27]): 5 (mortality of 90% or above (nearly complete death))
- B: bulrush, herbicidal effect (evaluation scale 0-5) (bulrush [28]): 5 (mortality of 90% or above (nearly complete death))

Compound: CCC(=O)N(c1ccccc1CN1COC(C)(C(F)(F)F)CC1=O)S(=O)(=O)C(F)(F)F (stereo not shown) [II-47]
- D: large crabgrass, herbicidal effect (large crabgrass [1]; dose 3.2 g/a): 1 (mortality of at least 5% and less than 20%)
- I: velvetleaf, herbicidal effect (velvetleaf [2]; dose 3.2 g/a): 4 (mortality of at least 70% and less than 90%)
- E: giant foxtail, herbicidal effect (giant foxtail [3]; dose 3.2 g/a): 2 (mortality of at least 20% and less than 40%)
- N: common chickweed, herbicidal effect (common chickweed [4]; dose 3.2 g/a): 3 (mortality of at least 40% and less than 70%)
- L: common lambsquater, herbicidal effect (common lambsquater [5]; dose 3.2 g/a): 0 (mortality of less than 5% (almost ineffective))
- M: posumbu knotweed, herbicidal effect (posumbu knotweed [6]; dose 3.2 g/a): 2 (mortality of at least 20% and less than 40%)
- K: redroot pigweed, herbicidal effect (redroot pigweed [7]; dose 3.2 g/a): 0 (mortality of less than 5% (almost ineffective))
- J: common ragweed, herbicidal effect (common ragweed [8]; dose 3.2 g/a): 2 (mortality of at least 20% and less than 40%)
- H: Italian ryegrass, herbicidal effect (Italian ryegrass [9]; dose 3.2 g/a): 0 (mortality of less than 5% (almost ineffective))
- A: barnyardgrass, herbicidal effect (barnyardgrass [10]; dose 3.2 g/a): 4 (mortality of at least 70% and less than 90%)
- O: beadstraw, herbicidal effect (beadstraw; dose 3.2 g/a): 4 (mortality of at least 70% and less than 90%)
- G: water foxtail, herbicidal effect (water foxtail [11]; dose 3.2 g/a): 2 (mortality of at least 20% and less than 40%)
- a: transplanted rice, effect on crop (evaluation scale 0-5) (transplanted rice): 0 (mortality of less than 5% (almost ineffective))
- C: ducksalad, herbicidal effect (evaluation scale 0-5) (ducksalad [12]): 5 (mortality of 90% or above (nearly complete death))
- A: barnyardgrass, herbicidal effect (evaluation scale 0-5) (barnyardgrass [13]): 4 (mortality of at least 70% and less than 90%)
- B: bulrush, herbicidal effect (evaluation scale 0-5) (bulrush [14]): 5 (mortality of 90% or above (nearly complete death))
- D: large crabgrass, herbicidal effect (evaluation scale 0-5) (large crabgrass [15]): 5 (mortality of 90% or above (nearly complete death))
- I: velvetleaf, herbicidal effect (evaluation scale 0-5) (velvetleaf [16]): 4 (mortality of at least 70% and less than 90%)
- E: giant foxtail, herbicidal effect (evaluation scale 0-5) (giant foxtail [17]): 4 (mortality of at least 70% and less than 90%)
- L: common lambsquater, herbicidal effect (evaluation scale 0-5) (common lambsquater [19]): 3 (mortality of at least 40% and less than 70%)
- M: posumbu knotweed, herbicidal effect (evaluation scale 0-5) (posumbu knotweed [20]): 3 (mortality of at least 40% and less than 70%)
- K: redroot pigweed, herbicidal effect (evaluation scale 0-5) (redroot pigweed [21]): 0 (mortality of less than 5% (almost ineffective))
- J: common ragweed, herbicidal effect (evaluation scale 0-5) (common ragweed [22]): 4 (mortality of at least 70% and less than 90%)
- H: Italian ryegrass, herbicidal effect (evaluation scale 0-5) (Italian ryegrass [23]): 3 (mortality of at least 40% and less than 70%)
- A: barnyardgrass, herbicidal effect (evaluation scale 0-5) (barnyardgrass [24]): 5 (mortality of 90% or above (nearly complete death))
- G: water foxtail, herbicidal effect (evaluation scale 0-5) (water foxtail [25]): 5 (mortality of 90% or above (nearly complete death))
- C: ducksalad, herbicidal effect (evaluation scale 0-5) (ducksalad [26]): 5 (mortality of 90% or above (nearly complete death))
- A: barnyardgrass, herbicidal effect (evaluation scale 0-5) (barnyardgrass [27]): 5 (mortality of 90% or above (nearly complete death))
- B: bulrush, herbicidal effect (evaluation scale 0-5) (bulrush [28]): 5 (mortality of 90% or above (nearly complete death))
